Measured values from patent publication US20240083857A1, “2-Methyl-Quinazolines” (Bayer Pharma Aktiengesellschaft, priority 2017, published 2024).

Tests used:
[1] = molecular target: K-Ras^G12C : hSOS1 interaction (Homo sapiens, UniProt Q07889); experiment: Biochemical assay 1: K-Ras^G12C interaction assay with hSOS1 (HTRF); format: binding; details: read-out: Assay 1 (KRAS-SOS Interaction) activity expressed as IC50
[2] = molecular target: Epidermal Growth Factor Receptor (EGFR) (Homo sapiens (Human), UniProt P00533); experiment: EGFR kinase assay (TR-FRET); format: biochemical; details: values given in μM; read-out: EGFR kinase inhibition IC50
How it was run: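 Read-out is the 665/620 nm HTRF ratio, from a Tb-cryptate anti-phosphotyrosine antibody and streptavidin-XL665 bound to phosphorylated biotin-peptide substrate. The enzyme, A431-derived EGFR (~3 U/ml), was given 15 min compound pre-binding at 22° C in Hepes pH 7.0 with Mg2+/Mn2+ before reaction.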

Epidermal Growth Factor Receptor (EGFR), sequence (P00533 25-1210): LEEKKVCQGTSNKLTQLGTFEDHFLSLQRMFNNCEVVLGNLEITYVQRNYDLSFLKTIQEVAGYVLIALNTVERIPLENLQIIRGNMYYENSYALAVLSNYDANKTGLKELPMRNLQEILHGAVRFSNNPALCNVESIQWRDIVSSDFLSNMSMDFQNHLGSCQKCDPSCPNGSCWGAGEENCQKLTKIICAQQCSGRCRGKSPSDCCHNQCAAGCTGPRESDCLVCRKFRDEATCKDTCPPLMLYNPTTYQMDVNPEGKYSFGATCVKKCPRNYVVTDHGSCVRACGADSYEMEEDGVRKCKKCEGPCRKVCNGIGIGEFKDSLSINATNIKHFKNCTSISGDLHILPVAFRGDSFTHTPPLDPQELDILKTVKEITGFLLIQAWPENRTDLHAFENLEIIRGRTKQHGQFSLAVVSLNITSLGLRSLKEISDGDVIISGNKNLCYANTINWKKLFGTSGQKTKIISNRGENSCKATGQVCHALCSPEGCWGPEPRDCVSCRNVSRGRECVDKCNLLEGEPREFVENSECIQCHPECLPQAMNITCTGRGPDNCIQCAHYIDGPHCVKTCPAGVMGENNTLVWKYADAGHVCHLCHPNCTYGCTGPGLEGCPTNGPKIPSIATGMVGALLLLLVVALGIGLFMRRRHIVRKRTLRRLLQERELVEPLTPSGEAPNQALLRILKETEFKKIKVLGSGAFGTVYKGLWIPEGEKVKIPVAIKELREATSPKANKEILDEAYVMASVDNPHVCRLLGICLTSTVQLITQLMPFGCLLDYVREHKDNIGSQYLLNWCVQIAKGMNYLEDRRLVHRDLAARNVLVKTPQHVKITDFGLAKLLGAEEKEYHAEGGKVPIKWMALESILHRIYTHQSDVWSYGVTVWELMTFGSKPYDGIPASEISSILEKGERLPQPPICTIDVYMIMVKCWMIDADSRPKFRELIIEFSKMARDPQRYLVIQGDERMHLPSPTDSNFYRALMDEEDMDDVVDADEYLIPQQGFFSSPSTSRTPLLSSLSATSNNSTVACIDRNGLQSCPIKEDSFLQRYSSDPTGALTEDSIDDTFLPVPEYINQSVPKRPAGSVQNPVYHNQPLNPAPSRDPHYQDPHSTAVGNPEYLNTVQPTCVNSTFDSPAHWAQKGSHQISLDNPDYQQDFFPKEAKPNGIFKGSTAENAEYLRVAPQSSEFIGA

## COc1cc2nc(C)nc(NC(C)c3ccc(-c4cnc5n4CCC5)s3)c2cc1OC (single isomer, unassigned; enantiomer 1) [Example 328, N-{1-[5-(6,7-dihydro-5H-pyrrolo[1,2-a]imidazol-3-yl)thiophen-2-yl]ethyl}-6,7-dimethoxy-2-methylquinazolin-4-amine, Enantiomer 1]
[1]
  IC50: 142 nM
[2]
  IC50: > 20 µM

## COc1cc2nc(C)nc(NC(C)c3ccc(-c4cnc5n4CCC5)s3)c2cc1OC (single isomer, unassigned; enantiomer 2) [Example 329, N-{1-[5-(6,7-dihydro-5H-pyrrolo[1,2-a]imidazol-3-yl)thiophen-2-yl]ethyl}-6,7-dimethoxy-2-methylquinazolin-4-amine, Enantiomer 2]
[1]
  IC50: 2410 nM
[2]
  IC50: > 20 µM

## COc1cc2nc(C)nc(NC(C)c3ccc(-c4ccc(F)cc4CNC(=O)[C@H]4CCCN4)s3)c2cc1OC (stereo in doubt) [Example 316, N-[2-(5-{1-[(6,7-dimethoxy-2-methylquinazolin-4-yl)amino]ethyl}thiophen-2-yl)-5-fluorobenzyl]-prolinamide]
[1]
  IC50: 271 nM
[2]
  IC50: > 20 µM

## COc1cc2nc(C)nc(NC(C)c3cccc4scnc34)c2cc1OC (stereo not drawn) [Example 14, N-[1-(1,3-benzothiazol-4-yl)ethyl]-6,7-dimethoxy-2-methylquinazolin-4-amine]
[1]
  IC50: 666 nM
[2]
  IC50: > 20 µM

## COc1cc2nc(C)nc(NC(C)c3cccc4ccsc34)c2cc1OC (stereo not drawn) [Example 15, N-[1-(1-benzothiophen-7-yl)ethyl]-6,7-dimethoxy-2-methylquinazolin-4-amine]
[1]
  IC50: 126 nM
[2]
  IC50: > 20 µM

## COc1cc2nc(C)nc(NC(C)c3cc(C)cc4[nH]ncc34)c2cc1OC (stereo not drawn) [Example 16, 6,7-dimethoxy-2-methyl-N-[1-(6-methyl-1H-indazol-4-yl)ethyl]quinazolin-4-amine]
[1]
  IC50: 3250 nM
[2]
  IC50: > 20 µM

## COc1cc2nc(C)nc(NC(C)c3cccc4c3cnn4C)c2cc1OC (stereo not drawn) [Example 17, 6,7-dimethoxy-2-methyl-N-[1-(1-methyl-1H-indazol-4-yl)ethyl]quinazolin-4-amine]
[1]
  IC50: 270 nM
[2]
  IC50: > 20 µM

## COc1cc2nc(C)nc(NC(C)c3c(F)ccc4[nH]ncc34)c2cc1OC (stereo not drawn) [Example 18, N-[1-(5-fluoro-1H-indazol-4-yl)ethyl]-6,7-dimethoxy-2-methylquinazolin-4-amine]
[1]
  IC50: 6500 nM
[2]
  IC50: > 20 µM

## COc1cc2nc(C)nc(NC(C)c3ccc4c(c3)OCCO4)c2cc1OC (stereo not drawn) [Example 19, N-[1-(2,3-dihydro-1,4-benzodioxin-6-yl)ethyl]-6,7-dimethoxy-2-methylquinazolin-4-amine]
[1]
  IC50: 7780 nM
[2]
  IC50: > 20 µM

## COc1cc2nc(C)nc(NC(C)c3cc4ccccc4o3)c2cc1OC (stereo not drawn) [Example 20, N-[1-(1-benzofuran-2-yl)ethyl]-6,7-dimethoxy-2-methylquinazolin-4-amine]
[1]
  IC50: 8420 nM
[2]
  IC50: > 20 µM

## COc1cc2nc(C)nc(NC(C)c3cccc(OC)c3OC)c2cc1OC (stereo not drawn) [Example 21, N-[1-(2,3-dimethoxyphenyl)ethyl]-6,7-dimethoxy-2-methylquinazolin-4-amine]
[1]
  IC50: 3160 nM
[2]
  IC50: > 20 µM

## COc1cc2nc(C)nc(N[C@H](C)c3cccc(-c4ccccc4CN)c3)c2cc1OC [Example 258, N-{(1R)-1-[2′-(aminomethyl)biphenyl-3-yl]ethyl}-6,7-dimethoxy-2-methylquinazolin-4-amine]
[1]
  IC50: 204 nM
[2]
  IC50: > 20 µM

## COc1cc2nc(C)nc(NC(C)c3csc(-c4ccccc4CN)c3)c2cc1OC (stereo not drawn) [Example 259, N-[1-{5-[2-(aminomethyl)phenyl]thiophen-3-yl}ethyl]-6,7-dimethoxy-2-methylquinazolin-4-amine]
[1]
  IC50: 402 nM
[2]
  IC50: > 20 µM

## COc1cc2nc(C)nc(N[C@H](C)c3cccc(CN)c3)c2cc1OC [Example 260, N-{(1R)-1-[3-(aminomethyl)phenyl]ethyl}-6,7-dimethoxy-2-methylquinazolin-4-amine]
[1]
  IC50: 4880 nM
[2]
  IC50: > 20 µM

## COc1cc2nc(C)nc(N[C@H](C)c3cccc(-c4cnc5n4CCC5)c3)c2cc1OC [Example 261, N-{(1R)-1-[3-(6,7-dihydro-5H-pyrrolo[1,2-a]imidazol-3-yl)phenyl]ethyl}-6,7-dimethoxy-2-methylquinazolin-4-amine]
[1]
  IC50: 839 nM
[2]
  IC50: > 20 µM

## COc1cc2nc(C)nc(NC(C)c3ccc(-c4ccccc4CN(C)C)s3)c2cc1OC (stereo not drawn) [Example 262, N-[1-(5-{2-[(dimethylamino)methyl]phenyl}thiophen-2-yl)ethyl]-6,7-dimethoxy-2-methylquinazolin-4-amine]
[1]
  IC50: 40.3 nM
[2]
  IC50: > 20 µM

## CNCc1ccccc1-c1cc(C(C)Nc2nc(C)nc3cc(OC)c(OC)cc23)cs1 (stereo not drawn) [Example 263, 6,7-dimethoxy-2-methyl-N-[1-(5-{2-[(methylamino)methyl]phenyl}thiophen-3-yl)ethyl]quinazolin-4-amine]
[1]
  IC50: 237 nM
[2]
  IC50: > 20 µM

## COc1cc2nc(C)nc(NC(C)c3cc(Br)cs3)c2cc1OC (stereo not drawn) [Example 264, N-[1-(4-bromothiophen-2-yl)ethyl]-6,7-dimethoxy-2-methylquinazolin-4-amine]
[1]
  IC50: 5940 nM
[2]
  IC50: > 20 µM

## COc1cc2nc(C)nc(NC(C)c3ccc(-c4cccc(CN)c4)s3)c2cc1OC (stereo not drawn) [Example 265, N-[1-{5-[3-(aminomethyl)phenyl]thiophen-2-yl}ethyl]-6,7-dimethoxy-2-methylquinazolin-4-amine]
[1]
  IC50: 2770 nM
[2]
  IC50: > 20 µM

## COc1cc2nc(C)nc(NC(C)c3ccc(-c4ccc(CN)cc4)s3)c2cc1OC (stereo not drawn) [Example 266, N-[1-{5-[4-(aminomethyl)phenyl]thiophen-2-yl}ethyl]-6,7-dimethoxy-2-methylquinazolin-4-amine]
[1]
  IC50: 3610 nM
[2]
  IC50: > 20 µM

## COc1cc2nc(C)nc(NC(C)c3cc(-c4ccn(CCN5CCCC5)n4)cs3)c2cc1OC (stereo not drawn) [Example 267, 6,7-dimethoxy-2-methyl-N-[1-(4-{1-[2-(pyrrolidin-1-yl)ethyl]-1H-pyrazol-3-yl}thiophen-2-yl)ethyl]quinazolin-4-amine]
[1]
  IC50: 3390 nM
[2]
  IC50: > 20 µM

## CNCc1ccccc1-c1cccc([C@@H](C)Nc2nc(C)nc3cc(OC)c(OC)cc23)c1 [Example 268, 6,7-dimethoxy-2-methyl-N-[(1R)-1-{2′-[(methylamino)methyl]biphenyl-3-yl}ethyl]quinazolin-4-amine]
[1]
  IC50: 166 nM
[2]
  IC50: > 20 µM

## COc1cc2nc(C)nc(NC(C)c3cc(-c4ccc(F)cc4CN)cs3)c2cc1OC (stereo not drawn) [Example 269, N-[1-{4-[2-(aminomethyl)-4-fluorophenyl]thiophen-2-yl}ethyl]-6,7-dimethoxy-2-methylquinazolin-4-amine]
[1]
  IC50: 162 nM
[2]
  IC50: > 20 µM

## COc1cc2nc(C)nc(NC(C)c3cc(-c4ccccc4CN)cs3)c2cc1OC (stereo not drawn) [Example 270, N-[1-{4-[2-(aminomethyl)phenyl]thiophen-2-yl}ethyl]-6,7-dimethoxy-2-methylquinazolin-4-amine]
[1]
  IC50: 91.4 nM
[2]
  IC50: > 20 µM

## COc1cc2nc(C)nc(NC(C)c3cc(-c4cnc5n4CCC5)cs3)c2cc1OC (stereo not drawn) [Example 272, N-{1-[4-(6,7-dihydro-5H-pyrrolo[1,2-a]imidazol-3-yl)thiophen-2-yl]ethyl}-6,7-dimethoxy-2-methylquinazolin-4-amine]
[1]
  IC50: 1820 nM
[2]
  IC50: > 20 µM

## COc1cc2nc(C)nc(NC(C)c3cc(-c4ccn(CCO)n4)cs3)c2cc1OC (stereo not drawn) [Example 273, 2-[3-(5-{1-[(6,7-dimethoxy-2-methylquinazolin-4-yl)amino]ethyl}thiophen-3-yl)-1H-pyrazol-1-yl]ethanol]
[1]
  IC50: 2320 nM
[2]
  IC50: > 20 µM

## COc1cc2nc(C)nc(N[C@H](C)c3cccc(-c4ccc(F)cc4CN)c3)c2cc1OC [Example 274, N-{(1R)-1-[2′-(aminomethyl)-4′-fluorobiphenyl-3-yl]ethyl}-6,7-dimethoxy-2-methylquinazolin-4-amine]
[1]
  IC50: 130 nM
[2]
  IC50: > 20 µM

## COc1cc2nc(C)nc(NC(C)c3ccc(-c4ccc(CN)o4)s3)c2cc1OC (stereo not drawn) [Example 275, N-[1-{5-[5-(aminomethyl)furan-2-yl]thiophen-2-yl}ethyl]-6,7-dimethoxy-2-methylquinazolin-4-amine]
[1]
  IC50: 2800 nM
[2]
  IC50: > 20 µM

## COc1cc2nc(C)nc(NC(C)c3ccc(-c4ccc(CN)s4)s3)c2cc1OC (stereo not drawn) [Example 276, N-{1-[5′-(aminomethyl)-2,2′-bithiophen-5-yl]ethyl}-6,7-dimethoxy-2-methylquinazolin-4-amine]
[1]
  IC50: 1410 nM
[2]
  IC50: > 20 µM

## COc1cc2nc(C)nc(NC(C)c3ccc(-c4ccccc4CNCC(=O)c4c[nH]c5ccccc45)s3)c2cc1OC (stereo not drawn) [Example 277, 2-{[2-(5-{1-[(6,7-dimethoxy-2-methylquinazolin-4-yl)amino]ethyl}thiophen-2-yl)benzyl]amino}-1-(1H-indol-3-yl)ethanone]
[1]
  IC50: 214 nM
[2]
  IC50: > 20 µM

## COc1cc2nc(C)nc(NC(C)c3ccc(-c4cccc5sc(C(N)=O)c(N)c45)s3)c2cc1OC (stereo not drawn) [Example 278, 3-amino-4-(5-{1-[(6,7-dimethoxy-2-methylquinazolin-4-yl)amino]ethyl}thiophen-2-yl)-1-benzothiophene-2-carboxamide]
[1]
  IC50: 12500 nM
[2]
  IC50: > 20 µM

## COC(=O)CNCc1ccccc1-c1ccc(C(C)Nc2nc(C)nc3cc(OC)c(OC)cc23)s1 (stereo not drawn) [Example 281, methyl N-[2-(5-{1-[(6,7-dimethoxy-2-methylquinazolin-4-yl)amino]ethyl}thiophen-2-yl)benzyl]glycinate]
[1]
  IC50: 559 nM
[2]
  IC50: > 20 µM

## COc1cc2nc(C)nc(NC(C)c3ccc(-c4ccccc4CNCC(=O)N4CCOCC4)s3)c2cc1OC (stereo not drawn) [Example 285, 2-{[2-(5-{1-[(6,7-dimethoxy-2-methylquinazolin-4-yl)amino]ethyl}thiophen-2-yl)benzyl]amino}-1-(morpholin-4-yl)ethanone]
[1]
  IC50: 203 nM
[2]
  IC50: > 20 µM
